Source: publication PMC6154745 (Oncotarget, 2018)
Marks after values point to notes of the source that are not given here.

Columns and labels:
kidney miRNAs = test: miRNA expression (microarray), Study 3, kidney; assay type: in vivo, ICR (CD-1) mice
Protocol: (§1) Each group was composed of 10 female mice.
(§2) The urine was collected for 8 h and pooled from the mice belonging to each experimental group in Study 3 by using metabolic cages during the day preceding euthanasia of mice. Immediately after sacrifice, a bronchoalveolar lavage (BAL) was performed and used for preparing BALF, and the blood was collected and used for preparing serum. BALF and blood serum were pooled within each experimental group. The organs reported in the general design of the studies were collected, as previously described. Immediately after collection, each organ or fluid was immersed in RNAlater and kept at -80°C for miRNA analysis. Portions of the organs used in Study 1 and Study 2 were stored at -80°C for evaluating DNA damage.
(§3) For evaluating the expression of pulmonary miRNAs we used the 7th generation miRCURY LNA™ microRNA Array (Exiqon), which contains 3,100 capture probes covering human, mouse and rat miRNAs. In particular, this array covers 1,135 mouse miRNAs, i.e. the 88.6% of the 1,281 mouse miRNAs listed in miRBase 19. Microarray analyses were carried out as previously described.
(§4) Treatment-related differences in body weights, in the frequency of MN NCE, and in the levels of pulmonary DNA adducts and 8-oxo-dGuo, all of them expressed as means ± SE within each group of mice, were evaluated for statistical significance by ANOVA followed by Student's t test for unpaired data. miRNA microarray data, after local background subtraction, log transformation, and normalization were analyzed by GeneSpring software (Agilent, Santa Clara, CA), and expression data were median centered by using the GeneSpring normalization option.

blood serum miRNAs = test: Blood serum miRNAs (microarray), Study 1; assay type: in vivo, Swiss H mice
stomach miRNAs = test: miRNA expression (microarray), Study 3, stomach; assay type: in vivo, ICR (CD-1) mice
Protocol: as §1, §2, §3, §4

lung DNA = test: Bulky DNA adducts by 32P postlabeling, Study 2, lung; assay type: in vivo, ICR (CD-1) mice
Protocol: DNA was extracted from tissue specimens (50 mg) collected individually from the lungs of 40 Swiss H mice used in Study 1 and from lungs, heart and liver of 80 ICR (CD-1) mice used in Study 2, as previously described. Bulky DNA adducts, after butanol enrichment, and 8-hydroxy-2’-deoxyguanosine (8-oxo-dGuo) were measured by ^32P postlabeling as previously described.

heart miRNAs = test: miRNA expression (microarray), Study 3, heart; assay type: in vivo, ICR (CD-1) mice
Protocol: as §1, §2, §3, §4

BALF miRNAs = test: miRNA expression (microarray), Study 3, BALF; assay type: in vivo, ICR (CD-1) mice
Protocol: as §1, §2, §3, §4

pulmonary miRNAs = test: Pulmonary miRNA expression (microarray), Study 1
Protocol: Ten mice per group (5 males and 5 females) were used. […] Twenty mice per group (10 males and 10 females) were used. […] Each group was composed of 10 female mice.
RNA was extracted from mouse organs (miRNeasy, Qiagen, Hilden, Germany) and body fluids (Exiqon's miRCURY™ RNA Isolation Kit – Biofluids (Exiqon, Vedbaek, Denmark) according to the manufacturers’ instructions. The quality of the RNA extracted was evaluated by spectrophotometric analyses using a fiber optic spectrophotometer (Nanodrop ND-1000).
For evaluating the expression of pulmonary miRNAs we used the 7th generation miRCURY LNA™ microRNA Array (Exiqon), which contains 3,100 capture probes covering human, mouse and rat miRNAs. In particular, this array covers 1,135 mouse miRNAs, i.e. the 88.6% of the 1,281 mouse miRNAs listed in miRBase 19. Microarray analyses were carried out as previously described [22].
Treatment-related differences in body weights, in the frequency of MN NCE, and in the levels of pulmonary DNA adducts and 8-oxo-dGuo, all of them expressed as means ± SE within each group of mice, were evaluated for statistical significance by ANOVA followed by Student's t test for unpaired data. miRNA microarray data, after local background subtraction, log transformation, and normalization were analyzed by GeneSpring software (Agilent, Santa Clara, CA), and expression data were median centered by using the GeneSpring normalization option. The statistical significance of the differences between experimental groups was evaluated by means of the GeneSpring ANOVA applied by using Bonferroni multiple testing correction. […] The overall variability of microarray data, as related to treatments, was evaluated by scatter-plot analysis (SPA), hierarchical cluster analysis (HCA), and principal component analysis (PCA).

spleen miRNAs = test: miRNA expression (microarray), Study 3, spleen; assay type: in vivo, ICR (CD-1) mice
Protocol: as §1, §2, §3, §4

skeletal muscle miRNAs = test: miRNA expression (microarray), Study 3, skeletal muscle; assay type: in vivo, ICR (CD-1) mice
Protocol: as §1, §2, §3, §4

Body weight, Study 3 = assay type: in vivo, ICR (CD-1) mice; details: in g
Excerpt: as §1
Strain H neonatal mice, used in Study 1, were born at the Animal Laboratory of the National Center of Oncology (Sofia, Bulgaria). The mice were housed in Makrolon™ cages on sawdust bedding and maintained on standard rodent chow (Kostinbrod, Bulgaria) and allowed drinking water ad libitum. Swiss ICR (CD-1) mice, either neonatal (Study 2) or two- month old (Study 3), were purchased from Harlan Laboratories (San Pietro al Natisone, Udine, Italy). The mice were housed in Makrolon™ cages on sawdust bedding and maintained on standard rodent chow (Teklad 9607, Harlan Laboratories) and tap water ad libitum. The animal room temperature was 23 ± 2°C, with a relative humidity of 55% and a 12 h day-night cycle. Housing and treatments of mice were in accordance with NIH, European (2010/63 UE Directive), and institutional guidelines. The issuance of the NIH Office of Laboratory Animal Welfare (OLAW) with the University of Genoa bears the identification number A5899-01 and is effective until February 28, 2021. The Institutional Animal Care and Use Committee (IACUC) protocol was approved by the Fox Chase Cancer Center Committee on April 13, 2015.
Celecoxib was supplied by the US National Cancer Institute (NCI) via MRIGlobal (Kansas City, MO).
In Study 1 and Study 2, feeding of the drug-containing diet started after weanling (about 4 weeks) and continued until the 10th week of life.
as §4

liver miRNAs = test: miRNA expression (microarray), Study 3, liver; assay type: in vivo, ICR (CD-1) mice
Protocol: as §1, §2, §3, §4

[1] = celecoxib in MCS-exposed mice vs MCS

Structure (SMILES): Cc1ccc(-c2cc(C(F)(F)F)nn2-c2ccc(S(N)(=O)=O)cc2)cc1 [Celecoxib, 4-[5-(4-methylphenyl)-3-(trifluoromethyl)-1H-pyrazol-1-yl] benzene-1-sulfonamide]
- upregulated/downregulated miRNAs (kidney miRNAs; MCS-exposed mice): 0/0
- miR-30c-2-3p downregulation (kidney miRNAs; MCS-free mice): 14 fold
- miR-30c-2-5p downregulation (kidney miRNAs; MCS-free mice): 13 fold
- miR-30e downregulation (kidney miRNAs; MCS-free mice): 8 fold
- miR-185-5p downregulation (kidney miRNAs; MCS-free mice): 25 fold
- miR-301 downregulation (kidney miRNAs; MCS-free mice): 7 fold
- miR-802-3p downregulation (kidney miRNAs; MCS-free mice): 6 fold
- miR-1964-5p downregulation (kidney miRNAs; MCS-free mice): 7 fold
- upregulated/downregulated miRNAs (kidney miRNAs; MCS-free mice): 7/20
- number of miRNAs modulated by celecoxib (kidney miRNAs; high dose): 27
- number of blood miRNAs on which the effect of MCS was counteracted (blood serum miRNAs; MCS-exposed mice given celecoxib): 7
- number of miRNAs significantly modulated in blood serum (blood serum miRNAs; vs sham-exposed mice, 2-fold variation and P < 0.05): 18
- miR-125b downregulation (stomach miRNAs; MCS-exposed mice): 9 fold
- miR-802-3p upregulation (stomach miRNAs; MCS-exposed mice): 3 fold
- upregulated/downregulated miRNAs (stomach miRNAs; MCS-exposed mice): 3/3
- miR-1964-5p downregulation (stomach miRNAs; MCS-free mice): 4 fold
- upregulated/downregulated miRNAs (stomach miRNAs; MCS-free mice): 2/12
- number of miRNAs modulated by celecoxib (stomach miRNAs; high dose): 20
- Bulky DNA adducts (lung DNA; F): 3.7 ± 0.31^c adducts/10^8 nucleotides
- Bulky DNA adducts (lung DNA; M): 4.4 ± 0.56^c adducts/10^8 nucleotides
- Bulky DNA adducts (lung DNA; M + F): 4.0 ± 0.31^c adducts/10^8 nucleotides
- decrease of DNA adduct levels vs MCS-exposed mice without celecoxib (lung DNA; combined genders): 1.6 fold
- decrease of DNA adduct levels vs MCS-exposed mice without celecoxib (lung DNA; males): 1.5 fold
- decrease of DNA adduct levels vs MCS-exposed mice without celecoxib (lung DNA; printed 'males' a second time): 1.7 fold
- increase of DNA adduct levels over sham-exposed mice (lung DNA; combined genders): 2.7 fold
- increase of DNA adduct levels over sham-exposed mice (lung DNA; females): 2.5 fold
- increase of DNA adduct levels over sham-exposed mice (lung DNA; males): 2.9 fold
- autoradiographic spots formed (lung DNA; smoke-free mice): 3
- upregulated/downregulated miRNAs (heart miRNAs; MCS-exposed mice): 0/1
- upregulated/downregulated miRNAs (heart miRNAs; MCS-free mice): 0/2
- number of miRNAs modulated by celecoxib (heart miRNAs; high dose): 3
- miR-1964-5p downregulation (BALF miRNAs; MCS-exposed mice): 3 fold
- upregulated/downregulated miRNAs (BALF miRNAs; MCS-exposed mice): 0/2
- miR-1964-5p downregulation (BALF miRNAs; MCS-free mice): 6 fold
- upregulated/downregulated miRNAs (BALF miRNAs; MCS-free mice): 2/3
- number of miRNAs modulated by celecoxib (BALF miRNAs; high dose): 7
- number of pulmonary miRNAs significantly dysregulated (pulmonary miRNAs; [1]): 11
- share of pulmonary miRNAs significantly dysregulated (pulmonary miRNAs; [1]): 1.0%
- number of pulmonary miRNAs downregulated (pulmonary miRNAs; vs sham-exposed mice): 2
- number of pulmonary miRNAs upregulated (pulmonary miRNAs; vs sham-exposed mice): 19
- upregulated/downregulated miRNAs (spleen miRNAs; MCS-exposed mice): 1/7
- miR-30c-2-5p downregulation (spleen miRNAs; MCS-free mice): 7 fold
- upregulated/downregulated miRNAs (spleen miRNAs; MCS-free mice): 2/7
- number of miRNAs modulated by celecoxib (spleen miRNAs; high dose): 17
- miR-30e upregulation (skeletal muscle miRNAs; MCS-exposed mice): 9 fold
- miR-125b downregulation (skeletal muscle miRNAs; MCS-exposed mice): 11 fold
- miR-511 upregulation (skeletal muscle miRNAs; MCS-exposed mice): 5 fold
- miR-695 downregulation (skeletal muscle miRNAs; MCS-exposed mice): 6 fold
- miR-1964-5p downregulation (skeletal muscle miRNAs; MCS-exposed mice): 5 fold
- upregulated/downregulated miRNAs (skeletal muscle miRNAs; MCS-exposed mice): 6/10
- upregulated/downregulated miRNAs (skeletal muscle miRNAs; MCS-free mice): 0/0
- number of miRNAs modulated by celecoxib (skeletal muscle miRNAs; high dose): 16
- body weight (Body weight, Study 3; females, MCS-exposed, high dose celecoxib): 26.7 ± 0.56
- body weight (Body weight, Study 3; females, MCS-exposed, low dose celecoxib): 30.9 ± 1.24
- body weight (Body weight, Study 3; females, smoke-free, high dose (1,600 mg/kg diet)): 31.5 ± 0.98
- body weight (Body weight, Study 3; females, smoke-free, low dose (20 mg/kg diet)): 32.6 ± 1.82
- body weight (Body weight, Study 3; males, smoke-free, high dose (1,600 mg/kg diet)): 42.1 ± 0.61
- upregulated/downregulated miRNAs (liver miRNAs; MCS-exposed mice): 2/1
- miR-30c-2-3p downregulation (liver miRNAs; MCS-free mice): 9 fold
- miR-30e downregulation (liver miRNAs; MCS-free mice): 10 fold
- miR-802-3p downregulation (liver miRNAs; MCS-free mice): 7 fold
- upregulated/downregulated miRNAs (liver miRNAs; MCS-free mice): 0/15
- number of miRNAs modulated by celecoxib (liver miRNAs; high dose): 18
